pEC50: −log10 of the molar value. Read-outs that look alike come from different tables or passages of the source.
Assays:
Format in all cases: cell-based
PPARα [1] = target: T1, PPARα (Homo sapiens, UniProt Q07869); assay: PPARα-GAL4 chimeric receptor transactivation in CHO-K1 cells; settings: human PPARα; CHO-K1 cells (footnote of Table 1); read-out: Transactivation activity EC50 PPARα Human
T1 sequence (Q07869 200-468 limits assumed): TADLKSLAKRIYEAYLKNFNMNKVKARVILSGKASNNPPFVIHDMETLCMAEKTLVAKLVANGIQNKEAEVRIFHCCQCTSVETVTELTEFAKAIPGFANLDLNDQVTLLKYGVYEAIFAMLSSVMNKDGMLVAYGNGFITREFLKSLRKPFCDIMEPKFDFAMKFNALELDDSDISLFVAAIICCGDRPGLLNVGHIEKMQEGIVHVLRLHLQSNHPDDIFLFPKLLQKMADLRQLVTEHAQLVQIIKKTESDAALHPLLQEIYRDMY

PPARα [2] = target: T2, PPARα (Rattus norvegicus, UniProt P37230); assay: Rat PPARα transactivation (species differences); settings: CHO-K1 cells (footnote of Table 1)
T2 construct: expressed in transfected cells
T2 sequence (P37230 1-468): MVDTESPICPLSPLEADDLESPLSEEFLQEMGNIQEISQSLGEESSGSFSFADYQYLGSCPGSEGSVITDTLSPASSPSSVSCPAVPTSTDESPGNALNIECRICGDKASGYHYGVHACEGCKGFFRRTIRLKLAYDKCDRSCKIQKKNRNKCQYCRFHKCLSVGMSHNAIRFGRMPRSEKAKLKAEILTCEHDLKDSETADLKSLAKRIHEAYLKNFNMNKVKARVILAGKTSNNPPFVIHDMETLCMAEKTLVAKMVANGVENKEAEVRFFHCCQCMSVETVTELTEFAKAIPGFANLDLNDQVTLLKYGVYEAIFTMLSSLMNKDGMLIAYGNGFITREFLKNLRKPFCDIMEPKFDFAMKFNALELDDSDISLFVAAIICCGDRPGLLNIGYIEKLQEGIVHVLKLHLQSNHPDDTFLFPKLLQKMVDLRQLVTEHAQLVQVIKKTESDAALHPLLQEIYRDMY

PPARα [3] = target: T3, PPARα (Canis lupus familiaris, UniProt Q95N78); assay: Dog PPARα transactivation (species differences); settings: CHO-K1 cells (footnote of Table 1)
T3 construct: expressed in transfected cells
T3 sequence (Q95N78 1-468): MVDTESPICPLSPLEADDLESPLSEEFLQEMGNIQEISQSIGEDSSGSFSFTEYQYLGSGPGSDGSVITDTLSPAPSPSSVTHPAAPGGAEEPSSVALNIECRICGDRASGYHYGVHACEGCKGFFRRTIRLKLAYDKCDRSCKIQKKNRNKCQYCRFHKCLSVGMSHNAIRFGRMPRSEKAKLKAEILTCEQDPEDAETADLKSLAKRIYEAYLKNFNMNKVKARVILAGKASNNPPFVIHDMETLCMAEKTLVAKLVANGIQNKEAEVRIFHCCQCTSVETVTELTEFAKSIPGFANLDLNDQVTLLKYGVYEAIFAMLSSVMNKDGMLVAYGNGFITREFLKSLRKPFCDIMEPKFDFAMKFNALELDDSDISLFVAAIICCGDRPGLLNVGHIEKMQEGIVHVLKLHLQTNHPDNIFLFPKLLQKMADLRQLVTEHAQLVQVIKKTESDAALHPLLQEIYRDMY

RXRα = target: T4, RXRα (Homo sapiens, UniProt P19793); assay: Nuclear receptor cross-reactivity transactivation, RXRα
T4 construct: expressed in transfected cells
T4 sequence (P19793 1-462): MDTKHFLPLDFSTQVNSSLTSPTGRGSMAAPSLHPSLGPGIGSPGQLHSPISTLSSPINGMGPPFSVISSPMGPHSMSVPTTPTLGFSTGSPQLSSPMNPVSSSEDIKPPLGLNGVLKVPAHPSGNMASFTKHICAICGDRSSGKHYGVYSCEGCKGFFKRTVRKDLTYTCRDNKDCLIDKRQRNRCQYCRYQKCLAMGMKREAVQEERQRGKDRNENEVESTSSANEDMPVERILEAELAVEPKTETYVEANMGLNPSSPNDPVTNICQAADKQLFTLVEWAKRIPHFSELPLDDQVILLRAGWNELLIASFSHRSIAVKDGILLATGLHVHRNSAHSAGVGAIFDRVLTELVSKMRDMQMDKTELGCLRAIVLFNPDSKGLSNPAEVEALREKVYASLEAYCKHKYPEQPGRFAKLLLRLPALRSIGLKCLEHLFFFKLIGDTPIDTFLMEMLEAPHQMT

PPARα [4] = target: T1, PPARα; assay: PPARα-GAL4 chimeric receptor transactivation in HEK-293 cells; settings: PPAR-GAL4 chimeric receptors, transiently transfected HEK-293 cells; ia = inactive at 10 μM
VDR = target: T5, VDR (Homo sapiens, UniProt P11473); assay: Nuclear receptor cross-reactivity transactivation, VDR
T5 construct: expressed in transfected cells
T5 sequence (P11473 1-427): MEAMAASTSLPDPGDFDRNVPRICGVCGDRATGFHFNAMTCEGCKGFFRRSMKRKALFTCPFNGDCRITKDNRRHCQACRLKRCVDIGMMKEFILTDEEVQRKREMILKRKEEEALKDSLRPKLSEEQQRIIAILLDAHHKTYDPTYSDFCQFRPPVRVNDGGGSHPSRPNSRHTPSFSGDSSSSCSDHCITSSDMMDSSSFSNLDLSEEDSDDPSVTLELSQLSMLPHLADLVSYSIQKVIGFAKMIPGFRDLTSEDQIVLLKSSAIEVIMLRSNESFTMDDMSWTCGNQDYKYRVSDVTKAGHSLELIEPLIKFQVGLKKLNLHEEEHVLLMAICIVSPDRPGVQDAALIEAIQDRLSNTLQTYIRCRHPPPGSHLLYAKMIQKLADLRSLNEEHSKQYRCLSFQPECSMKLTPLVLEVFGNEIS

LXRα = target: T6, LXRα (Homo sapiens, UniProt Q13133); assay: Nuclear receptor cross-reactivity transactivation, LXRα
T6 construct: expressed in transfected cells
T6 sequence (Q13133 1-447): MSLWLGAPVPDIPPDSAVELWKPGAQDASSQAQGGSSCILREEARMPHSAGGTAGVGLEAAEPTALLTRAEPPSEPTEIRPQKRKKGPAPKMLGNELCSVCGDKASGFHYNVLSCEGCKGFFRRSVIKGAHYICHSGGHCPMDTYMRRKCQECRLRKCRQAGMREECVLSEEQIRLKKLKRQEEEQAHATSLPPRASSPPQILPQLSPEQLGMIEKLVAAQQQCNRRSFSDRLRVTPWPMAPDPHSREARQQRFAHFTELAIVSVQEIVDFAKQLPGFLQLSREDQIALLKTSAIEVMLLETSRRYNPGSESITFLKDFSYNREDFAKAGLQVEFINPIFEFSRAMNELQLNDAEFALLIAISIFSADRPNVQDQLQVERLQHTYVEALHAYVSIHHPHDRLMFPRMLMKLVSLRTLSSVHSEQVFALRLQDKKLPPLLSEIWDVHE

RARα = target: T7, RARα (Homo sapiens, UniProt P10276); assay: Nuclear receptor cross-reactivity transactivation, RARα
T7 construct: expressed in transfected cells
T7 sequence (P10276 1-462): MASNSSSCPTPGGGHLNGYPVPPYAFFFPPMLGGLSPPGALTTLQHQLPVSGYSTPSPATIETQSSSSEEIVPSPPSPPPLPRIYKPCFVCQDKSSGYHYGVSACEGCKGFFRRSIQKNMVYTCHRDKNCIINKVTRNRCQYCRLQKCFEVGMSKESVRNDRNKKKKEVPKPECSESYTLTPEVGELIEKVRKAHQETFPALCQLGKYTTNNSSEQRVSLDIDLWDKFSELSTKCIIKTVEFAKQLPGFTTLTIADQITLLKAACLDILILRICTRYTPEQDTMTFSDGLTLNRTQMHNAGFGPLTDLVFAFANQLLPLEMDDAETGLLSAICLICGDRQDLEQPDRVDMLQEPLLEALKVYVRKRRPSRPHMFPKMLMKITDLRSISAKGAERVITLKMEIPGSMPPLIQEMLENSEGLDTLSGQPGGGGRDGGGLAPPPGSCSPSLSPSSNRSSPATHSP

PPARγ [5] = target: T8, PPARγ (Homo sapiens, UniProt P37231); assay: cell-based; settings: read-out: Transactivation activity EC50 PPARγ
T8 sequence (P37231 238-505 limits assumed): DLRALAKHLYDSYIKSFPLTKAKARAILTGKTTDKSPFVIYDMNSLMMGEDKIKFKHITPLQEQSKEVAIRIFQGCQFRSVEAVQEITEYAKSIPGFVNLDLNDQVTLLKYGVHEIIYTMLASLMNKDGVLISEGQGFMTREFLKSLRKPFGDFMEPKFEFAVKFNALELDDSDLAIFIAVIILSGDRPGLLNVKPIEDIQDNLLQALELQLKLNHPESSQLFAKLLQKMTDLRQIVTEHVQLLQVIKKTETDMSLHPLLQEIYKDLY

PPARγ [6] = target: T9, PPARγ (Homo sapiens, UniProt P37231); assay: Nuclear receptor cross-reactivity transactivation, PPARγ
T9 construct: expressed in transfected cells
T9 sequence (P37231 1-505): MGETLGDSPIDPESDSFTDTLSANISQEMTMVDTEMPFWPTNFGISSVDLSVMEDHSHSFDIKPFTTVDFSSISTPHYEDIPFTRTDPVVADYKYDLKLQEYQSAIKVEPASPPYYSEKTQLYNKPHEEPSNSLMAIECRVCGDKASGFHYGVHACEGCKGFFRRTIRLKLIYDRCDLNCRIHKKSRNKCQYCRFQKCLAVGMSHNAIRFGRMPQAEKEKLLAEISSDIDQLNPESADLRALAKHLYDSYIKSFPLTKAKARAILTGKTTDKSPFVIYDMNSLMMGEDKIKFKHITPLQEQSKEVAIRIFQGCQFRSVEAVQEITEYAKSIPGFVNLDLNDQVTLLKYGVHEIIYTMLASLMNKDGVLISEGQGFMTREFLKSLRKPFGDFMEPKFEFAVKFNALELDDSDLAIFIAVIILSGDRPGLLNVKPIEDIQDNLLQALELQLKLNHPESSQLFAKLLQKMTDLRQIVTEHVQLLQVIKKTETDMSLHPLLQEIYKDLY

PPARδ = target: T10, PPARδ (Homo sapiens, UniProt Q03181); assay: cell-based; settings: PPAR-GAL4 chimeric receptors, transiently transfected HEK-293 cells; ia = inactive at 10 μM; read-out: Transactivation activity EC50 PPARδ
T10 sequence (Q03181 171-441 limits assumed): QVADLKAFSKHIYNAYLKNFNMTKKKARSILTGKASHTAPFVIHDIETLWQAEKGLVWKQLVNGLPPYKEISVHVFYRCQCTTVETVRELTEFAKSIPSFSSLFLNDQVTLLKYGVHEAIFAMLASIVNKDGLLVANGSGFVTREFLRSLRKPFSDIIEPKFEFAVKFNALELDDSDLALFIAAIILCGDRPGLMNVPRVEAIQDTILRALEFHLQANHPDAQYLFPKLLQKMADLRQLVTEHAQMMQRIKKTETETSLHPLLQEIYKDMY

[7] = concentrations up to 300 nM (Figure 7)
[8] = concentrations up to 1 μM (Figure 4)

Work on `CC[C@@H](Cc1ccc(OC)c(C(=O)NCc2ccc(C(F)(F)F)cc2)c1)C(=O)O` [KCL, (S)-2-[4-methoxy-3-(4-trifluoromethylbenzylcarbamoyl)phenylmethyl]butyric acid] yielded a pEC50 (PPARα [1]) of 7.22, a pEC50 (PPARα [2]) of 5.28 and a pEC50 (PPARα [3]) of 6.80.
`CCCCOc1ccc(C[C@H](CC)C(=O)O)cc1CNC(=O)c1ccc(C(F)(F)F)cc1F` [Compound 65, (S)-2-{3-[(2-fluoro-4-trifluoromethylbenzoylamino)methyl]-4-buthoxy-benzyl}butyric acid] was tested, and the “activation of RXRα” value (RXRα; [7]) was “did not significantly activate”, the pEC50 (PPARα [4]) was 6.60 and the “activation of VDR” value (VDR; [7]) was “did not significantly activate”. The “activation of LXRα” value (LXRα; [7]) was “did not significantly activate”, the “activation of RARα” value (RARα; [7]) was “did not significantly activate” and the pEC50 (PPARγ [5]) was 5.96. For the same molecule, the “activation of PPARγ” value (PPARγ [6]; [7]) was “did not significantly activate” and the pEC50 (PPARδ) was 9.04.
With `CC[C@@H](Cc1ccc(OC)c(CNC(=O)c2ccc(C(F)(F)F)cc2F)c1)C(=O)O` [Compound 41, (S)-2-{3-[(2-fluoro-4-trifluoromethylbenzoylamino)methyl]-4-methoxybenzyl}butyric acid] the “activation of RXRα” value (RXRα; [8]) was “did not significantly activate”, the pEC50 (PPARα [4]) was 8.00 and the “activation of VDR” value (VDR; [8]) was “did not significantly activate”. For the same molecule, the “activation of LXRα” value (LXRα; [8]) was “did not significantly activate”, the “activation of RARα” value (RARα; [8]) was “did not significantly activate” and the pEC50 (PPARγ [5]; PPAR-GAL4 chimeric receptors, transiently transfected HEK-293 cells, ia = inactive at 10 μM) was 5.72. The “activation of PPARγ” value (PPARγ [6]; [8]) was “did not significantly activate” and the pEC50 (PPARδ) was 7.92.
